Laboratory results published in PubChem BioAssay AID1963440 (Molecular Pharmacology Branch, DTP, NCI, 2024).
Several values for one entry are separate records, joined by “and”; a condition that tells them apart may be missing. Equal entries are not always repeated.

Tested on: NCI-H1417 complex spheroids, growth % test/control
Assay: Anticancer human tumor NCI-H1417 cell line growth inhibition [Asc];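 further: spheroids exposed to compounds for 7 days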;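 on viability, T/C: 100% = DMSO vehicle control wells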
Conditions: for viability, T/C: stronger effect = lower value
How it was run: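 Concentration series start at each agent's clinical Cmax, or at 10 microM when none is established, and drop in half-log steps; agents are applied alone or together to complex spheroids built with HUVEC and hMSC.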

[1] = curve of first compound, second compound 0.1 µM
[2] = curve of first compound, second compound 0.316 µM
[3] = curve of first compound, second compound 1 µM
[4] = curve of first compound, second compound 3.16 µM
[5] = curve of first compound, second compound 10 µM
[6] = second compound 0.1 µM, first compound 0.0316 µM
[7] = second compound 0.1 µM, first compound 0.1 µM
[8] = second compound 0.316 µM, first compound 0.0316 µM
[9] = second compound 0.316 µM, first compound 0.1 µM
[10] = second compound 1 µM, first compound 0.0316 µM
[11] = second compound 1 µM, first compound 0.1 µM
[12] = second compound 3.16 µM, first compound 0.0316 µM
[13] = second compound 3.16 µM, first compound 0.1 µM
[14] = second compound 10 µM, first compound 0.0316 µM
[15] = second compound 10 µM, first compound 0.1 µM
[16] = second compound 0.1 µM, first compound 0.316 µM
[17] = second compound 0.1 µM, first compound 1 µM
[18] = second compound 0.1 µM, first compound 3.16 µM
[19] = second compound 0.1 µM, first compound 10 µM
[20] = second compound 0.316 µM, first compound 0.316 µM
[21] = second compound 0.316 µM, first compound 1 µM
[22] = second compound 0.316 µM, first compound 3.16 µM
[23] = second compound 0.316 µM, first compound 10 µM
[24] = second compound 1 µM, first compound 0.316 µM
[25] = second compound 1 µM, first compound 1 µM
[26] = second compound 1 µM, first compound 3.16 µM
[27] = second compound 1 µM, first compound 10 µM

NC1CCC(NC2CC2c2ccccc2)CC1 (centres undefined) + Cc1c(S(C)(=O)=O)c(-c2cc(F)cc(N3CCN(c4ccc(NS(=O)(=O)c5ccc(NC(CCN6CCC(C(=O)OCCCP(=O)(O)O)CC6)CSc6ccccc6)c(S(=O)(=O)C(F)(F)F)c5)cc4)CC3)c2)c(-c2ccc(Cl)cc2)n1C(C)C
IC50 [1]: > 100 nM
IC50 [2]: < 0.316 nM
IC50 [3]: < 0.316 nM
IC50 [4]: < 0.316 nM
IC50 [5]: < 0.316 nM
viability, T/C (second compound 0.1 µM, first compound 0.000316 µM): 66.5%
viability, T/C (second compound 0.1 µM, first compound 0.001 µM): 69%
viability, T/C (second compound 0.1 µM, first compound 0.00316 µM): 61.8%
viability, T/C (second compound 0.1 µM, first compound 0.01 µM): 65.1%
viability, T/C [6]: 65.7%
viability, T/C [7]: 64.3%
viability, T/C (second compound 0.316 µM, first compound 0.000316 µM): 45.1%
viability, T/C (second compound 0.316 µM, first compound 0.001 µM): 43.2%
viability, T/C (second compound 0.316 µM, first compound 0.00316 µM): 34.7%
viability, T/C (second compound 0.316 µM, first compound 0.01 µM): 40.1%
viability, T/C [8]: 38.8%
viability, T/C [9]: 38.8%
viability, T/C (second compound 1 µM, first compound 0.000316 µM): 12.5%
viability, T/C (second compound 1 µM, first compound 0.001 µM): 14.6%
viability, T/C (second compound 1 µM, first compound 0.00316 µM): 16.3%
viability, T/C (second compound 1 µM, first compound 0.01 µM): 11.2%
viability, T/C [10]: 16.2%
viability, T/C [11]: 15.7%
viability, T/C (second compound 3.16 µM, first compound 0.000316 µM): 1.88%
viability, T/C (second compound 3.16 µM, first compound 0.001 µM): 1.85%
viability, T/C (second compound 3.16 µM, first compound 0.00316 µM): 2.09%
viability, T/C (second compound 3.16 µM, first compound 0.01 µM): 1.09%
viability, T/C [12]: 1.14%
viability, T/C [13]: 2.64%
viability, T/C (second compound 10 µM, first compound 0.000316 µM): 1.53%
viability, T/C (second compound 10 µM, first compound 0.001 µM): 1.86%
viability, T/C (second compound 10 µM, first compound 0.00316 µM): 1.9%
viability, T/C (second compound 10 µM, first compound 0.01 µM): 1.64%
viability, T/C [14]: 2.09%
viability, T/C [15]: 1.63%

C#Cc1c(F)ccc2cc(O)cc(-c3ncc4c(N5CC6CCC(C5)N6)nc(OCC56CCCN5CC(F)C6)nc4c3F)c12 (centres undefined) + CNC(C)C(=O)NC1CN(S(=O)(=O)c2cccc(S(=O)(=O)N3CCC4CCC(C(=O)NC(c5ccccc5)c5ccccc5)N4C(=O)C(NC(=O)C(C)NC)C3)c2)CCC2CCC(C(=O)NC(c3ccccc3)c3ccccc3)N2C1=O
IC50 (curve of first compound, second compound 0.00316 µM): > 10000 nM
IC50 (curve of first compound, second compound 0.01 µM): > 10000 nM
IC50 (curve of first compound, second compound 0.0316 µM): > 10000 nM
IC50 [1]: > 10000 nM
IC50 [2]: > 10000 nM
IC50 [3]: > 10000 nM
viability, T/C (second compound 0.00316 µM, first compound 0.0316 µM): 96.1%
viability, T/C (second compound 0.00316 µM, first compound 0.1 µM): 87.6%
viability, T/C (second compound 0.00316 µM, first compound 0.316 µM): 99.3%
viability, T/C (second compound 0.00316 µM, first compound 1 µM): 95.7%
viability, T/C (second compound 0.00316 µM, first compound 3.16 µM): 81.7%
viability, T/C (second compound 0.00316 µM, first compound 10 µM): 65%
viability, T/C (second compound 0.01 µM, first compound 0.0316 µM): 98%
viability, T/C (second compound 0.01 µM, first compound 0.1 µM): 90%
viability, T/C (second compound 0.01 µM, first compound 0.316 µM): 82.2%
viability, T/C (second compound 0.01 µM, first compound 1 µM): 98.1%
viability, T/C (second compound 0.01 µM, first compound 3.16 µM): 93.2%
viability, T/C (second compound 0.01 µM, first compound 10 µM): 66.4%
viability, T/C (second compound 0.0316 µM, first compound 0.0316 µM): 101%
viability, T/C (second compound 0.0316 µM, first compound 0.1 µM): 90.6%
viability, T/C (second compound 0.0316 µM, first compound 0.316 µM): 91.1%
viability, T/C (second compound 0.0316 µM, first compound 1 µM): 98.2%
viability, T/C (second compound 0.0316 µM, first compound 3.16 µM): 88.9%
viability, T/C (second compound 0.0316 µM, first compound 10 µM): 69.3%
viability, T/C [6]: 89.5%
viability, T/C [7]: 91.5%
viability, T/C [16]: 86%
viability, T/C [17]: 97.6%
viability, T/C [18]: 91.2%
viability, T/C [19]: 69.8%
viability, T/C [8]: 82.3%
viability, T/C [9]: 80.9%
viability, T/C [20]: 87.1%
viability, T/C [21]: 86.7%
viability, T/C [22]: 91.2%
viability, T/C [23]: 64.6%
viability, T/C [10]: 97.5%
viability, T/C [11]: 80.9%
viability, T/C [24]: 89.6%
viability, T/C [25]: 84.3%
viability, T/C [26]: 86.7%
viability, T/C [27]: 66.8%

C#Cc1c(F)ccc2cc(O)cc(-c3ncc4c(N5CC6CCC(C5)N6)nc(OCC56CCCN5CC(F)C6)nc4c3F)c12 (centres undefined) + Cc1c(S(C)(=O)=O)c(-c2cc(F)cc(N3CCN(c4ccc(NS(=O)(=O)c5ccc(NC(CCN6CCC(C(=O)OCCCP(=O)(O)O)CC6)CSc6ccccc6)c(S(=O)(=O)C(F)(F)F)c5)cc4)CC3)c2)c(-c2ccc(Cl)cc2)n1C(C)C
IC50 [1]: 5740 nM
IC50 [2]: < 31.6 nM
IC50 [3]: < 31.6 nM
IC50 [4]: < 31.6 nM
IC50 [5]: < 31.6 nM
viability, T/C [6]: 72%
viability, T/C [7]: 83.9%
viability, T/C [16]: 71.8%
viability, T/C [17]: 75.8%
viability, T/C [18]: 64.7%
viability, T/C [19]: 35.7%
viability, T/C [8]: 42.6%
viability, T/C [9]: 48%
viability, T/C [20]: 34.8%
viability, T/C [21]: 20.9%
viability, T/C [22]: 12.9%
viability, T/C [23]: 5.66%
viability, T/C [10]: 12%
viability, T/C [11]: 10.5%
viability, T/C [24]: 7.98%
viability, T/C [25]: 5.31%
viability, T/C [26]: 3.23%
viability, T/C [27]: 4.53%
viability, T/C [12]: 3.15%
viability, T/C [13]: 2.9%
viability, T/C (second compound 3.16 µM, first compound 0.316 µM): 3.53%
viability, T/C (second compound 3.16 µM, first compound 1 µM): 1.96%
viability, T/C (second compound 3.16 µM, first compound 3.16 µM): 1.85%
viability, T/C (second compound 3.16 µM, first compound 10 µM): 2.61%
viability, T/C [14]: 2.05%
viability, T/C [15]: 2.06%
viability, T/C (second compound 10 µM, first compound 0.316 µM): 2.12%
viability, T/C (second compound 10 µM, first compound 1 µM): 1.68%
viability, T/C (second compound 10 µM, first compound 3.16 µM): 1.15%
viability, T/C (second compound 10 µM, first compound 10 µM): 2.22%

CCN1CCN(Cc2ccc(Nc3ncc(F)c(-c4cc(F)c5nc(C)n(C(C)C)c5c4)n3)nc2)CC1
viability, T/C (compound 0.00316 µM): 99.3% and 89.7% and 102%
viability, T/C (compound 0.01 µM): 95.8% and 105% and 93.8%
viability, T/C (compound 0.0316 µM): 99.9% and 102% and 101%
viability, T/C (compound 0.1 µM): 96.5% and 111% and 105%
viability, T/C (compound 0.316 µM): 92.8% and 84.3% and 97.3%
viability, T/C (compound 1 µM): 91.7% and 81% and 79.7%
IC50 (curve of compound): > 1000 nM
